In patent US20250333419A1, “BICYCLIC COMPOUNDS AS INHIBITORS OF WRN” (Incyte Corporation, priority 2023, published 2025):

Tests used:
WRN [1] = molecular target: T1, WRN (Homo sapiens, UniProt Q14191); assay: WRN ATPase activity assay (ADP-Glo); format: biochemical; details: IC50, 1-hr pre-incubation with enzyme; geometric means of at least 2 independent replicates
T1 construct: A His-tagged construct of WRN (AA S2-S1235) was produced and used for the ATPase assay; His; made in house; host or cells: Sf9 insect cells (baculovirus)
Experimental: Compounds of the Examples were tested for WRN ATPase activity. WRN ATPase activity catalyzes ATP hydrolysis to produce ADP and phosphate. DNA encoding the target protein, 6×HIS-TEV-WRN-517-945, was produced, cloned and transfected as detailed in Example D. The amount of ADP produced was measured using ADP-Glo™ Kinase Assay kit from Promega Corporation in a Greiner white regular volume 384 wells assay plate (Greiner #781075). Data was normalized to a standard curve generated using various ADP concentrations and the corresponding luminescent signal intensities at each concentration. The assay conditions were optimized for enzyme concentration (WRN), substrate concentrations (ATP & dsDNA), and the linearity of the ATPase reaction, in the following assay buffer: 50 mM Tris-HCl, pH-7.5, 2 mM MgCl2, 50 mM NaCl, 1 mM EGTA, 0.01% P-20, 0.05% BSA, and 2 mM DTT prepared with nuclease free water.
A serial dilution (1:3 scheme) of the compounds were prepared in neat DMSO, with 100 nL of the compounds dispensed in the 384 wells assay plate. An 1-hr pre-incubation of the compounds with enzyme was included. A His-tagged construct of WRN (AA S2-S1235) was produced and used for the ATPase assay. Maximum inhibition control wells were set up with the addition of only assay buffer, and no inhibition control wells were set up with neat DMSO without test compounds. The reaction was initiated by addition of 5 μL substrate mix (200 μM ultrapure ATP, and 50 nM dsDNA prepared in assay buffer) and incubated at 25° C. for 35 min. A forked dsDNA oligomer substrate was prepared by annealing equal amounts of oligo GPat-1 ([BHQ2][…]) and oligo GPat-2 ([…][TAM]) and was used as dsDNA substrate for WRN ATPase assay. A typical ATPase reaction consists of 25 nM forked dsDNA, 100 μM ATP, and 1 nM WRN prepared in assay buffer. The WRN ATPase reaction was stopped by the addition of 5 μL of ADP-Glo Reagent from ADP-Glo™ Kinase Assay kit and incubated for 40 min to deplete the unreacted ATP. Afterwards, 5 μL of Kinase Detection Reagent from the ADP-Glo™ Kinase Assay kit was added and incubated for 1 hr for the development of luminescence signal.
Luminesce signals were measured on BMG PHERAstar FSX using luminescence protocol. Data analysis was carried out using Genedata software following % of control normalization. Fitting parameters include dose response IC50, Hill slope (n), maximum inhibition (S∞), and minimum inhibition (S0). The reported IC50 values for compounds in this invention are the geometric means of at least 2 independent replicates.

WRN [2] = molecular target: T1, WRN; assay: WRN Helicase activity assay (fluorescence DNA unwinding); format: biochemical; details: IC50, 1-hr pre-incubation with enzyme; geometric means of at least 2 independent replicates
Experimental: Compounds of the examples were tested for WRN helicase activity. DNA encoding the target protein, 6×HIS-TEV-WRN-517-945, was produced, cloned and transfected as detailed in Example D. To determine the inhibitory properties of the compounds, a 384 wells plate-based Helicase assay was set up to measure the extent of DNA unwinding (Helicase) activity of WRN. The WRN Helicase assay was designed to measure increase in fluorescence signal using a fluorescence based, donor-quencher paired forked dsDNA oligomer substrate (custom synthesis from Sigma-Aldrich) prepared by annealing equal amounts of oligo GPat-1 ([BHQ2][…]) and oligo GPat-2 ([…][TAM]). Continuous measurement of fluorescent signal was used to optimize the buffer conditions, concentration of enzyme (WRN), concentration of substrates (ATP & dsDNA), and the linearity of the Helicase reaction. All solutions were prepared in the following assay buffer: 50 mM Tris-HCl, pH-7.5, 2 mM MgCl2, 50 mM NaCl, 1 mM EGTA, 0.01% P-20, 0.05% BSA, and 2 mM DTT prepared with nuclease free water.
A serial dilution (1:3 scheme) of the compounds was prepared in neat DMSO and 100 nL of the compounds was dispensed in the Greiner black low volume (Greiner #784076) 384 wells assay plate. An 1-hr pre-incubation of the compounds with enzyme was included. A His-tagged construct of WRN (AA S2-S1235) was produced and used for the ATPase assay. Maximum inhibition control wells were set up with the addition of only assay buffer, and no inhibition control wells were set up with neat DMSO without test compounds. The reaction was initiated by addition of 5 μL substrate mix (200 μM ultrapure ATP, and 50 nM dsDNA prepared in assay buffer) and incubated at 25° C. for 35 min. A typical Helicase reaction consists of 25 nM forked dsDNA, 100 μM ATP, and 1 nM WRN prepared in assay buffer. The WRN Helicase reaction was quenched by the addition of 5 μL ‘STOP’ solution containing 100 mM EDTA (final EDTA concentration 33.33 mM) prepared in assay buffer. The plates were read on BMG PHERAstar FSX using 540/590 module to measure an increase of fluorescence. Data analysis was carried out using the Genedata software following % of control normalization. Fitting parameters include dose response IC50, Hill slope (n), maximum inhibition (S∞), and minimum inhibition (S0). The reported IC50 values for compounds in this invention are the geometric means of at least 2 independent replicates.

T1 sequence (Q14191 2-1235): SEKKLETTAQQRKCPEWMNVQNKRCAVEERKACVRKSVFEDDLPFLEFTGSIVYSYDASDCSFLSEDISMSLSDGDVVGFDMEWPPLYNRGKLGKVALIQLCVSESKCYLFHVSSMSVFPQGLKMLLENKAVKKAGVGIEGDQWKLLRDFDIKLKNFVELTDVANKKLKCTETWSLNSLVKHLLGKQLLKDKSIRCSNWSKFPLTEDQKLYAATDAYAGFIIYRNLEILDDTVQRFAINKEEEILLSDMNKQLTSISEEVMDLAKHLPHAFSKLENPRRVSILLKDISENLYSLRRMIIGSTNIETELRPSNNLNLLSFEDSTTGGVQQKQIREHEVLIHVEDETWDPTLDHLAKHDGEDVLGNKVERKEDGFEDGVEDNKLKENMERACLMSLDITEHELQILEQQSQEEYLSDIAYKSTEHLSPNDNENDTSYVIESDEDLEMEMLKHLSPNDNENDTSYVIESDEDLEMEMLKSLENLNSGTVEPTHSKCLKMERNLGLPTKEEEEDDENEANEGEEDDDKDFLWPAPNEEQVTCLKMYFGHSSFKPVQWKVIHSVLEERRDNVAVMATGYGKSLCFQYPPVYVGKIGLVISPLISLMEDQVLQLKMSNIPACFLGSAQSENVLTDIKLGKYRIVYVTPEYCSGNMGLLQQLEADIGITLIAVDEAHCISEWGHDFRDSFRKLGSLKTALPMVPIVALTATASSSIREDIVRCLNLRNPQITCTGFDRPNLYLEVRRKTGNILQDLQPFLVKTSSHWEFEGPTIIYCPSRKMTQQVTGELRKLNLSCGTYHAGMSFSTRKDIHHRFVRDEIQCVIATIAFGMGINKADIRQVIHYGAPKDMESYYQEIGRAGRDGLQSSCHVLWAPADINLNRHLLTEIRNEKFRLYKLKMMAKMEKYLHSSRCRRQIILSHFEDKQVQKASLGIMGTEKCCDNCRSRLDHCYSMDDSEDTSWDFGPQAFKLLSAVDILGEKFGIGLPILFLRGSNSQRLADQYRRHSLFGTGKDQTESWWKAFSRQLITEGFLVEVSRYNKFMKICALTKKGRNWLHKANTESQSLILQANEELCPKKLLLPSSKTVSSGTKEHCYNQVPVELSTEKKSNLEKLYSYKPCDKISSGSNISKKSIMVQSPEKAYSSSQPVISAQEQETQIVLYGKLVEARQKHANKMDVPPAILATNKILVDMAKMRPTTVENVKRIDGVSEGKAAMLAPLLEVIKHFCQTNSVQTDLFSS

Compound | IC50 (WRN [1]) | IC50 (WRN [2])
CCc1c(-c2ccccc2NC(=O)/C(C#N)=C\C(C)C)c(=O)n2nc(C3=CCOCC3)nc2n1CC(=O)Nc1ccc(C(F)(F)F)cc1 (single isomer, unassigned) [Example 4, (Z)-2-Cyano-N-(2-(2-(3,6-dihydro-2H-pyran-4-yl)-5-ethyl-7-oxo-4-(2-oxo-2-((4-(trifluoromethyl)phenyl)amino)ethyl)-4,7-dihydro-[1,2,4]triazolo[1,5-a]pyrimidin-6-yl)phenyl)-4-methylpent-2-enamide] | 500 to 1000 nM | 500 to 1000 nM
CCc1c(-c2ccccc2NC(=O)/C(C#N)=C/C(C)C)c(=O)n2nc(C3=CCOCC3)nc2n1CC(=O)Nc1ccc(C(F)(F)F)cc1 (single isomer, unassigned) [Example 5, (E)-2-Cyano-N-(2-(2-(3,6-dihydro-2H-pyran-4-yl)-5-ethyl-7-oxo-4-(2-oxo-2-((4-(trifluoromethyl)phenyl)amino)ethyl)-4,7-dihydro-[1,2,4]triazolo[1,5-a]pyrimidin-6-yl)phenyl)-4-methylpent-2-enamide] | < 100 nM | < 100 nM
C=CS(=O)(=O)Nc1ccccc1-c1c(CC)n(CC(=O)Nc2ccc(C(F)(F)F)cc2)c2nc(C3=CCOCC3)nn2c1=O [Example 2, 2-(2-(3,6-Dihydro-2H-pyran-4-yl)-5-ethyl-7-oxo-6-(2-(vinylsulfonamido)phenyl)-[1,2,4]triazolo[1,5-a]pyrimidin-4(7H)-yl)-N-(4-(trifluoromethyl)phenyl)acetamide] | < 100 nM | < 100 nM
CCOC(=O)/C=C/C(=O)Nc1ccccc1-c1c(CC)n(CC(=O)Nc2ccc(C(F)(F)F)cc2)c2nc(C3=CCOCC3)nn2c1=O [Example 3, Ethyl (E)-4-((2-(2-(3,6-dihydro-2H-pyran-4-yl)-5-ethyl-7-oxo-4-(2-oxo-2-((4-(trifluoromethyl)phenyl)amino)ethyl)-4,7-dihydro-[1,2,4]triazolo[1,5-a]pyrimidin-6-yl)phenyl)amino)-4-oxobut-2-enoate] | 500 to 1000 nM | 1000 to 2000 nM
C=CC(=O)N(C)c1ccccc1-c1c(CC)n(CC(=O)Nc2ccc(C(F)(F)F)cc2)c2nc(C3=CCOCC3)nn2c1=O [Example 6, N-(2-(2-(3,6-Dihydro-2H-pyran-4-yl)-5-ethyl-7-oxo-4-(2-oxo-2-((4-(trifluoromethyl)phenyl)amino)ethyl)-4,7-dihydro-[1,2,4]triazolo[1,5-a]pyrimidin-6-yl)phenyl)-N-methylacrylamide] | < 100 nM | 100 to 500 nM
C=CC(=O)Nc1cc(C(F)(F)F)ccc1-c1c(CC)n(CC(=O)Nc2ccc(C(F)(F)F)cc2)c2nc(C3=CCOCC3)nn2c1=O [Example 12, N-(2-(2-(3,6-Dihydro-2H-pyran-4-yl)-5-ethyl-7-oxo-4-(2-oxo-2-((4-(trifluoromethyl)phenyl)amino)ethyl)-4,7-dihydro-[1,2,4]triazolo[1,5-a]pyrimidin-6-yl)-5-(trifluoromethyl)phenyl)acrylamide] | < 100 nM | < 100 nM
C=CC(=O)N1CCCC=C1c1c(CC)n(CC(=O)Nc2ccc(C(F)(F)F)cc2)c2nc(C3=CCOCC3)nn2c1=O [Example 14, 2-(6-(1-Acryloyl-1,4,5,6-tetrahydropyridin-2-yl)-2-(3,6-dihydro-2H-pyran-4-yl)-5-ethyl-7-oxo-[1,2,4]triazolo[1,5-a]pyrimidin-4(7H)-yl)-N-(4-(trifluoromethyl)phenyl)acetamide] | < 100 nM | < 100 nM
C=CC(=O)N1CCc2cccc(-c3c(CC)n(CC(=O)Nc4ccc(C(F)(F)F)cc4)c4nc(C5=CCOCC5)nn4c3=O)c21 [Example 15, 2-(6-(1-Acryloylindolin-7-yl)-2-(3,6-dihydro-2H-pyran-4-yl)-5-ethyl-7-oxo-[1,2,4]triazolo[1,5-a]pyrimidin-4(7H)-yl)-N-(4-(trifluoromethyl)phenyl)acetamide] | < 100 nM | < 100 nM

Second part, the compound after the results:

IC50 (WRN [1]) | IC50 (WRN [2]) | Compound
100 to 500 nM | 500 to 1000 nM | C=CC(=O)Nc1c(C)cccc1-c1c(CC)n(CC(=O)Nc2ccc(C(F)(F)F)cc2)c2nc(C3=CCOCC3)nn2c1=O [Example 7, N-(2-(2-(3,6-Dihydro-2H-pyran-4-yl)-5-ethyl-7-oxo-4-(2-oxo-2-((4-(trifluoromethyl)phenyl)amino)ethyl)-4,7-dihydro-[1,2,4]triazolo[1,5-a]pyrimidin-6-yl)-6-methylphenyl)acryl amide]
< 100 nM | < 100 nM | C=CC(=O)Nc1cc(C)ccc1-c1c(CC)n(CC(=O)Nc2ccc(C(F)(F)F)cc2)c2nc(C3=CCOCC3)nn2c1=O [Example 8, N-(2-(2-(3,6-Dihydro-2H-pyran-4-yl)-5-ethyl-7-oxo-4-(2-oxo-2-((4-(trifluoromethyl)phenyl)amino)ethyl)-4,7-dihydro-[1,2,4]triazolo[1,5-a]pyrimidin-6-yl)-5-methylphenyl)acryl amide]
500 to 1000 nM | 500 to 1000 nM | C=CC(=O)Nc1ccc(C)cc1-c1c(CC)n(CC(=O)Nc2ccc(C(F)(F)F)cc2)c2nc(C3=CCOCC3)nn2c1=O [Example 9, N-(2-(2-(3,6-Dihydro-2H-pyran-4-yl)-5-ethyl-7-oxo-4-(2-oxo-2-((4-(trifluoromethyl)phenyl)amino)ethyl)-4,7-dihydro-[1,2,4]triazolo[1,5-a]pyrimidin-6-yl)-4-methylphenyl)acryl amide]
< 100 nM | < 100 nM | C=CC(=O)Nc1cc(Cl)ccc1-c1c(CC)n(CC(=O)Nc2ccc(C(F)(F)F)cc2)c2nc(C3=CCOCC3)nn2c1=O [Example 10, N-(5-Chloro-2-(2-(3,6-dihydro-2H-pyran-4-yl)-5-ethyl-7-oxo-4-(2-oxo-2-((4-(trifluoromethyl)phenyl)amino)ethyl)-4,7-dihydro-[1,2,4]triazolo[1,5-a]pyrimidin-6-yl)phenyl)acrylamide]
500 to 1000 nM | 500 to 1000 nM | C=CC(=O)Nc1ccc(Cl)cc1-c1c(CC)n(CC(=O)Nc2ccc(C(F)(F)F)cc2)c2nc(C3=CCOCC3)nn2c1=O [Example 11, N-(4-Chloro-2-(2-(3,6-dihydro-2H-pyran-4-yl)-5-ethyl-7-oxo-4-(2-oxo-2-((4-(trifluoromethyl)phenyl)amino)ethyl)-4,7-dihydro-[1,2,4]triazolo[1,5-a]pyrimidin-6-yl)phenyl)acrylamide]
< 100 nM | < 100 nM | C=CC(=O)Nc1cc(F)ccc1-c1c(CC)n(CC(=O)Nc2ccc(C(F)(F)F)cc2)c2nc(C3=CCOCC3)nn2c1=O [Example 13, N-(2-(2-(3,6-Dihydro-2H-pyran-4-yl)-5-ethyl-7-oxo-4-(2-oxo-2-((4-(trifluoromethyl)phenyl)amino)ethyl)-4,7-dihydro-[1,2,4]triazolo[1,5-a]pyrimidin-6-yl)-5-fluorophenyl)acryl amide]
